# Results as given in ChEMBL document CHEMBL1649185, “Antibacterial activity of ultrashort cationic lipo-beta-peptides” (2009).
# Square brackets hold non-standard residues; d marks the D form. Peptide text beside a SMILES is read from it. * marks the point of attachment. Palmitoyl = CCCCCCCCCCCCCCCC(=O)*; Lauroyl = CCCCCCCCCCCC(=O)*
# Assays:
# Format in all cases: functional
# [1] = tested on: Escherichia coli; test: Antimicrobial activity against Escherichia coli CAN-ICU 63074 […]
# [2] = tested on: Enterococcus faecalis; test: Antimicrobial activity against Enterococcus faecalis ATCC 29212 […]
# [3] = tested on: Staphylococcus epidermidis; test: Antimicrobial activity against Staphylococcus epidermidis ATCC 14990 […]
# [4] = tested on: Escherichia coli; test: Antimicrobial activity against Escherichia coli ATCC 25922 by […]
# [5] = tested on: Klebsiella pneumoniae; test: Antimicrobial activity against Klebsiella pneumoniae ATCC 13883 […]
# [6] = tested on: Enterococcus faecium; test: Antimicrobial activity against Enterococcus faecium ATCC 27270 […]
# [7] = tested on: Pseudomonas aeruginosa; test: Antimicrobial activity against Pseudomonas aeruginosa ATCC 27853 […]
# [8] = tested on: Escherichia coli; test: Antimicrobial activity against Escherichia coli CAN-ICU 61714 […]
# [9] = tested on: Acinetobacter baumannii; test: Antimicrobial activity against Acinetobacter baumannii CAN-ICU 63169 by […]
# [10] = tested on: Staphylococcus aureus; test: Antimicrobial activity against methicillin-resistant Staphylococcus aureus ATCC 33592 […]
# [11] = tested on: Staphylococcus epidermidis; test: Antimicrobial activity against methicillin-resistant Staphylococcus epidermidis CAN-ICU 61589 […]
# [12] = tested on: Staphylococcus aureus; test: Antimicrobial activity against Staphylococcus aureus ATCC 29213 […]
# [13] = tested on: Stenotrophomonas maltophilia; test: Antimicrobial activity against Stenotrophomonas maltophilia CAN-ICU 62584 […]
# [14] = tested on: Streptococcus pneumoniae; test: Antimicrobial activity against Streptococcus pneumoniae ATCC 49619 […]
# [15] = tested on: Pseudomonas aeruginosa; test: Antimicrobial activity against Pseudomonas aeruginosa CAN-ICU 62308 […]
Molecule,MIC [1] [µg/mL],MIC [2] [µg/mL],MIC [3] [µg/mL],MIC [4] [µg/mL],MIC [5] [µg/mL],MIC [6] [µg/mL],MIC [7] [µg/mL],MIC [8] [µg/mL],MIC [9] [µg/mL],MIC [10] [µg/mL],MIC [11] [µg/mL],MIC [12] [µg/mL],MIC [13] [µg/mL],MIC [14] [µg/mL],MIC [15] [µg/mL]
CCCCCCCCCCCCCCCC(=O)N[C@@H](CCCCN)C(=O)N[C@@H](C)C(=O)N[C@@H](C)C(=O)N[C@@H](CCCCN)C(=O)O (Palmitoyl-KAAK-OH),16,16,8,16,128,8,32,16,128,16,8,16,128,128,64
CCCCCCCCCCCC(=O)N[C@@H](CCCCN)C(=O)N[C@@H](CC(C)C)C(=O)N[C@H](CC(C)C)C(=O)N[C@@H](CCCCN)C(=O)O (Lauroyl-KL[dL]K-OH),64,32,8,64,> 64,32,128,64,> 256,16,16,16,> 256,64,128
CCCCCCCCCCCC(=O)N[C@H](CCCN)CC(=O)N[C@@H](CC(=O)N[C@@H](CC(=O)N[C@H](CCCN)CC(=O)O)C(C)C)C(C)C,64,64,16,64,256,32,128,64,> 128,32,32,32,256,128,128
CCCCCCCCCCCCCCCC(=O)N[C@@H](CCCCN)C(=O)N[C@@H](C)C(=O)N[C@H](C)C(=O)N[C@@H](CCCCN)C(=O)O (Palmitoyl-KA[dA]K-OH),32,16,4,32,128,8,64,32,128,32,8,8,128,128,64
CCCCCCCCCCCCCCCC(=O)N[C@H](CCCN)CC(=O)NCC(=O)NCC(=O)N[C@H](CCCN)CC(=O)O,32,32,8,32,128,32,64,32,128,32,16,16,256,128,> 64
GENTAMICIN,8,,0.25,1,0.25,,8,128,128,2,32,1,> 512,4,128
CCCCCCCCCCCCCCCC(=O)N[C@@H](CCCCN)C(=O)N[C@@H](CCCCN)C(=O)N[C@@H](CCCCN)C(=O)N[C@@H](CCCCN)C(=O)O (Palmitoyl-KKKK-OH),32,16,4,16,256,16,64,16,256,16,8,32,256,> 64,256
CCCCCCCCCCCCCCCC(=O)N[C@@H](CCCCN)C(=O)N[C@@H](CCCCN)C(=O)N[C@H](CCCCN)C(=O)N[C@@H](CCCCN)C(=O)O (Palmitoyl-KK[dK]K-OH),32,32,4,32,256,16,32,32,256,16,8,16,256,> 32,256
CCCCCCCCCCCCCCCC(=O)N[C@H](CCCN)CC(=O)N[C@H](CCCN)CC(=O)N[C@H](CCCN)CC(=O)N[C@H](CCCN)CC(=O)O,32,32,4,16,128,16,64,32,256,16,4,16,256,128,128
CCCCCCCCCCCC(=O)N[C@@H](CCCCN)C(=O)N[C@@H](CC(C)C)C(=O)N[C@@H](CC(C)C)C(=O)N[C@@H](CCCCN)C(=O)O (Lauroyl-KLLK-OH),128,32,16,128,256,16,128,128,> 64,16,16,16,> 256,128,128
CCCCCCCCCCCCCCCC(=O)N[C@H](CCCN)CC(=O)NCCC(=O)NCCC(=O)N[C@H](CCCN)CC(=O)O,64,32,8,64,> 128,32,256,64,256,32,16,64,> 128,> 64,128
CCCCCCCCCCCCCCCC(=O)N[C@@H](CCCCN)C(=O)NCC(=O)NCC(=O)N[C@@H](CCCCN)C(=O)O,16,8,4,16,64,16,64,16,128,16,8,8,128,128,64
CCCCCCCCCCCCCCCC(=O)N[C@@H](CCCCN)C(=O)NCC(=O)NCC(=O)N[C@H](CCCCN)C(=O)O,16,16,8,16,64,16,64,64,64,16,8,16,64,128,64
